# Activity calls are given as the source filed them. How the calls were made is not given here.
# Tests used:
# Assay in all cases: off-target hydrolase inhibition by competitive ABPP – gel-based competitive ABPP, fluorescence, selectivity assay for DAGLb inhibitor project, late-stage follow-up (AID 602355)
# [1] = tested on: ABHD11; conditions: mouse proteome gel ABPP, FP-rhodamine fluorescence, at 10 µM (top of the series)
# [2] = tested on: ABHD12; conditions: mouse proteome gel ABPP, FP-rhodamine fluorescence, at 10 µM (top of the series)
# [3] = molecular target: Acyl-protein thioesterase 1 (Mus musculus) (UniProt P97823); conditions: mouse proteome gel ABPP, FP-rhodamine fluorescence; LYPLA1; at 10 µM (top of the series)
# [4] = tested on: FAAH; conditions: mouse proteome gel ABPP, FP-rhodamine fluorescence, at 10 µM (top of the series)
# [5] = tested on: LYPLA2; conditions: mouse proteome gel ABPP, FP-rhodamine fluorescence, at 10 µM (top of the series)
# [6] = tested on: MAGL; conditions: mouse proteome gel ABPP, FP-rhodamine fluorescence, at 10 µM (top of the series)
# [7] = molecular target: Monoacylglycerol lipase ABHD6 (Mus musculus) (UniProt Q8R2Y0); conditions: mouse proteome gel ABPP, FP-rhodamine fluorescence, at 10 µM (top of the series)
# [8] = molecular target: Platelet-activating factor acetylhydrolase (Mus musculus) (UniProt Q60963); conditions: mouse proteome gel ABPP, FP-rhodamine fluorescence; PLA2G7; at 10 µM (top of the series)
# [9] = molecular target: Platelet-activating factor acetylhydrolase 2, cytoplasmic (Mus musculus) (UniProt Q8VDG7); conditions: mouse proteome gel ABPP, FP-rhodamine fluorescence; PAFAH2; at 10 µM (top of the series)
# [10] = molecular target: Diacylglycerol lipase-beta (Mus musculus) (UniProt Q91WC9); conditions: mouse proteome gel ABPP, FP-rhodamine fluorescence; DAGLb; at 10 µM (top of the series)
# [11] = tested on: PNPLA6; conditions: mouse proteome gel ABPP, FP-rhodamine fluorescence, at 10 µM (top of the series)
# Chain of Acyl-protein thioesterase 1 (Mus musculus) (P97823 whole entry, looked up): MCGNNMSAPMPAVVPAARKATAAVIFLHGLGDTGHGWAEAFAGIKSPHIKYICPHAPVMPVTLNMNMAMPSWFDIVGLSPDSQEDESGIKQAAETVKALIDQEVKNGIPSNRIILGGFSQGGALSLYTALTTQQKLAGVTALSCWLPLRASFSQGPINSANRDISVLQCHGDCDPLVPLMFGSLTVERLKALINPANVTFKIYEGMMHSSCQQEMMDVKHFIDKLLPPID
# Chain of Monoacylglycerol lipase ABHD6 (Mus musculus) (Q8R2Y0 whole entry, looked up): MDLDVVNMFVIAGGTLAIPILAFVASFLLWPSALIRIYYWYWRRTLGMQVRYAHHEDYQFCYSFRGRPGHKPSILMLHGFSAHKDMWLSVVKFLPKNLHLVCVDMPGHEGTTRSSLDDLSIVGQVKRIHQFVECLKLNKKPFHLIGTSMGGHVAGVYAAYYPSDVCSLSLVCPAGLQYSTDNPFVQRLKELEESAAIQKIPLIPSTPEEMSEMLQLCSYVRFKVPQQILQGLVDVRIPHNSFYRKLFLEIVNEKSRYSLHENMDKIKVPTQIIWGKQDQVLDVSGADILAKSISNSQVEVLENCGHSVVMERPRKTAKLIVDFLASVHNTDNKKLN
# Chain of Platelet-activating factor acetylhydrolase (Mus musculus) (Q60963 whole entry, looked up): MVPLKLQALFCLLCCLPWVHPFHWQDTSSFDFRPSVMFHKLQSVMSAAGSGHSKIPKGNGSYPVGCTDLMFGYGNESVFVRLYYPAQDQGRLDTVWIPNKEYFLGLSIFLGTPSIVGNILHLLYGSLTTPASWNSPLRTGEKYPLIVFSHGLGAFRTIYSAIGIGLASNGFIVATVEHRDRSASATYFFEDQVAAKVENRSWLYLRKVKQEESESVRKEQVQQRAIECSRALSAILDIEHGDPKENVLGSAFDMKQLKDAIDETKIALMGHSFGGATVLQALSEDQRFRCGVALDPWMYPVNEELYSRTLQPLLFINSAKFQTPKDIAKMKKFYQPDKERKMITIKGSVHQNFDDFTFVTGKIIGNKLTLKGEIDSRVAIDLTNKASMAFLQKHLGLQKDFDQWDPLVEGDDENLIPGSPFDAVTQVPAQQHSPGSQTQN
# Chain of Platelet-activating factor acetylhydrolase 2, cytoplasmic (Mus musculus) (Q8VDG7 whole entry, looked up): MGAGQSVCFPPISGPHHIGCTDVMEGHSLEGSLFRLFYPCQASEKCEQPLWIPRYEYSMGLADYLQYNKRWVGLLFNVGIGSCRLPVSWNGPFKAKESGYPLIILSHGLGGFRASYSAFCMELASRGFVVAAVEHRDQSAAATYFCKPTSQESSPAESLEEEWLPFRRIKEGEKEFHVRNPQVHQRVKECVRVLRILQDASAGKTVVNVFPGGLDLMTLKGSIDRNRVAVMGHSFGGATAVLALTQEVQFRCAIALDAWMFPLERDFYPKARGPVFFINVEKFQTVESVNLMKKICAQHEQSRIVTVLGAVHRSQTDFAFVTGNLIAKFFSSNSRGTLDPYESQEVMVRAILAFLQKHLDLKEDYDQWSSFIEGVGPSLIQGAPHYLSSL
# Chain of Diacylglycerol lipase-beta (Mus musculus) (Q91WC9 whole entry, looked up): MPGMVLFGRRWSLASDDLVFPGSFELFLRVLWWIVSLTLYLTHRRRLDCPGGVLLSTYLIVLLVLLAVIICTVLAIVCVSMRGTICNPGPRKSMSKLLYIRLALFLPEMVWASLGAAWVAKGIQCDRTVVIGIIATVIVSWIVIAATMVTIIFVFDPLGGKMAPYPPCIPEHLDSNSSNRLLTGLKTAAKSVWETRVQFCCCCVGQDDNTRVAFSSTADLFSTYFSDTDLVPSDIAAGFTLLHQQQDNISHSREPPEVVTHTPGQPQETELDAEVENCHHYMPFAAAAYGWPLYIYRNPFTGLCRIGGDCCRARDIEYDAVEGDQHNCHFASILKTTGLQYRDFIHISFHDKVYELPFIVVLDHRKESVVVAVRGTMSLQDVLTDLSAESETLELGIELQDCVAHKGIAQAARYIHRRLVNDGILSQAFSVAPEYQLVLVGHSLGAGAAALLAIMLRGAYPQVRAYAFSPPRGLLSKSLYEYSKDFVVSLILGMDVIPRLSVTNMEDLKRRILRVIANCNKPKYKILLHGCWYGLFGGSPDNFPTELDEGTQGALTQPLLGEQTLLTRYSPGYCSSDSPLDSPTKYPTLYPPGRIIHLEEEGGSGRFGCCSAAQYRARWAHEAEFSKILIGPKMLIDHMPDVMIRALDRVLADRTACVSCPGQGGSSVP
Structure (SMILES),inhibition [1],inhibition [2],inhibition [3],inhibition [4],inhibition [5],inhibition [6],inhibition [7] [%],inhibition [8] [%],inhibition [9],inhibition [10],inhibition [11]
O=C(N1CCCCC1Cc1ccccc1)n1cc(-c2ccc(-c3ccccc3)cc2)nn1 (stereo not drawn),0% (inactive),20% (inactive),0% (inactive),25% (inactive),0% (inactive),0% (inactive),100,100,80% (inactive),–,–
COc1ccc(-c2ccc(-c3cn(C(=O)N4CCCCC4c4ccccc4)nn3)cc2)cc1 (stereo not drawn),0% (inactive),0% (inactive),15% (inactive),70%,15% (inactive),0% (inactive),100,–,–,20% (inactive),55% (inactive)
COc1ccccc1-c1ccc(-c2cn(C(=O)N3CCCCC3Cc3ccccc3)nn2)cc1 (stereo not drawn),0% (inactive),0% (inactive),0% (inactive),0% (inactive),0% (inactive),100%,100,85,15% (inactive),95%,–

# From PubChem BioAssay AID602355 (The Scripps Research Institute Molecular Screening Center, 2012)
